Experimental data as given in patent publication US9834541B2, “2-aminopyridine compounds” (Merck Patent GmbH, priority 2012, dated 2017).

How the values were obtained:
[1] = test system: Wnt pathway; assay: Cellular assay for Wnt pathway activity, LS174T-shl-fLuc clone 5 (LS174T-L5) luciferase reporter assay; assay type: cell-based; settings: Homo sapiens; LS174T TCF luciferase reporter cells, 24 hours incubation
Description: 1. Cellular Assay for Wnt Pathway Activity LS174T-shl-fLuc Clone 5 (LS174T-L5) Reporter Assay Principle:
This assay is based on an in-vitro luciferase activity readout. The human colon cancer cell line, LS174T was transduced with a lentivirus encoding a short half-life luciferase (with a destabilised PEST sequence construct; construct F1756): 16×TCF/LEF transcription sites—short half life firefly luciferase on a basal pTA promoter—puromycin resistance gene on an EF-1-α promoter). This construct was made using the lentiviral base vector: pCDF1-MCS2-EF1-Puro from System Biosciences (cat. # CD110B-1). The luciferase has a T1/2 of about 60 minutes.
Stable luciferase-expressing clones were selected, using 1 μg/mL puromycin selection and the clones were bulked up.
Compounds that inhibit the Wnt pathway are predicted to inhibit the induction of luciferase transcription by TCF; this will result in reduced luciferase protein production and luciferase signal readout.
Compounds were tested for their Wnt pathway inhibitory activities using the described firefly luciferase reporter cell based assay. An LS174T luciferase reporter cell line was used which contained a T-Cell Factor (TCF) dependent gene promoter firefly luciferase construct.
Compounds, in concentrations from 30 μM to 1 nM, were incubated for 24 hours on the cells. Luciferase activities were determined using the Steady Glo Luciferase Assay System (Promega) and the TOPCOUNT microplate reader (Perkin Elmer). For analysis, the obtained data were normalized against the untreated vehicle control and fitted for determination of the IC50 values using the Excel Fit application of the Excel Software (Microsoft).

[2] = CLint (intrinsic clearance) assay, liver microsomal incubation; assay type: in vitro ADME, human; settings: liver microsomes, pH 7.4; human hepatic microsomes, 0.5 mg/mL protein, class symbols
Method: Also shown is the human hepatic microsomal intrinsic clearance (CLint), whereby the following classification is used:
2. CLint (Intrinsic Clearance) Assay
A Tecan Genesis workstation (RWS ASY 150/8) was used to perform the microsomal incubations. Analysis was carried out using a Waters ACQUITY UPLC system coupled to an ABSciex API3000 mass spectrometer. Data analysis was performed using Assay Explorer (Symyx).
Column: Acquity UPLC BEH C18, 2.1×50 mm, 1.7 um (Waters)
Mobile phases: • A=0.1% formic acid in water • B=acetonitrile
Column temperature: 50° C.
0.1 M potassium phosphate buffer pH 7.4 containing 1 mM MgCl2
15 mM NADPH in phosphate buffer
5.0 mg protein/mL liver microsomes in phosphate buffer
Each experiment consists of 12 test and 2 reference compounds. The reference compounds are incubated as a cocktail.
Dilution of test compounds was done in 2 steps from a 10 mM DMSO stock solution. First 4 μL stock solution was added to 196 μL of 20% DMSO in potassium phosphate buffer pH 7.4. In a second step 10 μL of the first dilution were added to 1890 μL potassium phosphate buffer and 100 μL internal standard solution to a final concentration of […].
100 μL of the final compound dilution were aliquoted into a 96 deep well plate. 12.5 μL liver microsomes were added to each well (0.5 mg/mL final protein concentration) and the samples preincubated for 5 min at 37° C. and 800 rpm agitation.
After the preincubation, 250 μL cold acetonitrile were added to the 0 min samples to prevent a reaction. Following this, 12.5 μL NADPH solution were added to all wells to start the incubation, with the exception of the 0 min and 30 min controls without cofactor, where the NADPH was substituted for phosphate buffer.
The incubations were stopped after 5, 10, 20 and 30 min by adding 250 μL cold acetonitrile to the individual wells.
The quenched samples were then centrifuged at 4000 g for 1 h at 4° C. 100 μL of the supernatant were transferred into 96 well plates for analysis.
The metabolic stability of each compound was determined by measurement of the change in LC-MS/MS peak area over time. Assay Explorer software was used to automatically calculate the slope k of the decline. The intrinsic clearance (CLint) of each compound was then calculated according to the formula: CLint(μL/min/mg protein)=k1000/protein concentration.

Row | Compound | IC50 [1] [nM] | microsomal CLint at 0.8 μM [2] [µL/min/mg]
1 | Cn1cc(-c2ccc(-c3cnc(N)c(Cl)c3N3CC[C@H](C#N)[C@@H](O)C3)cc2)cn1 (racemic) [Compound 56, rac (3R,4R)-2′-Amino-3′-chloro-3-hydroxy-5′-[4-(1-methyl-1H-pyrazol-4-yl)-phenyl]-3,4,5,6-tetrahydro-2H-[1,4′] bipyridinyl-4-carbonitrile] | 531 | 10 to 50
2 | CN1c2ccc(-c3cnc(N)c(Cl)c3N3CC[C@H](C#N)[C@@H](O)C3)cc2CS1(=O)=O (racemic) [Compound 57, Racemic trans-2′-amino-3′-chloro-3-hydroxy-5′-(1-methyl-2,2-dioxo-2,3-dihydro-1H-2l6-benzo[c]isothiazol-5-yl)-3,4,5,6-tetrahydro-2H-[1,4′]bipyridinyl-4-carbonitrile] | 28.6 | 10 to 50
3 | CN1c2ccc(-c3cnc(N)c(Cl)c3N3CCC4(CC3)CNC(=O)O4)cc2CS1(=O)=O [Compound 4, 8-[2-Amino-3-chloro-5-(1-methyl-2,2-dioxo-2,3-dihydro-1H-2I6-benzo[c]isothiazol-5-yl)-pyridin-4-yl]-1-oxa-3,8-diaza-spiro[4.5] decan-2-one] | 38 | < 10
4 | Nc1ncc(-c2ccc3c(N)n[nH]c3c2)c(N2CCC3(CC2)NC(=O)NC3=O)c1Cl [Compound 5, 8-[2-Amino-5-(3-amino-1H-indazol-6-yl)-3-chloro-pyridin-4-yl]-1,3,8-triaza-spiro[4.5] decane-2,4-dione] | 1500 | < 10
5 | Nc1ncc(-c2ccc(-c3cnn(CCO)c3)cc2)c(N2CCC3(CC2)NC(=O)NC3=O)c1Cl [Compound 6, 8-(2-Amino-3-chloro-5-{4-[1-(2-hydroxy-ethyl)-1H-pyrazol-4-yl]-phenyl}-pyridin-4-yl)-1,3,8-triaza-spiro[4.5] decane-2,4-dione] | 390 | 10 to 50
6 | Cn1ncc2cc(-c3cnc(N)c(Cl)c3N3CCC4(CC3)NC(=O)NC4=O)ccc21 [Compound 8, 8-[2-Amino-3-chloro-5-(1-methyl-1H-indazol-5-yl)-pyridin-4-yl]-1,3,8-triaza-spiro[4.5] decane-2,4-dione] | 29 | < 10
7 | Nc1ncc(-c2ccc3oc(=O)[nH]c3c2)c(N2CCC3(CC2)CNC(=O)O3)c1Cl [Compound 9, 8-[2-Amino-3-chloro-5-(2-oxo-2,3-dihydro-benzooxazol-5-yl)-pyridin-4-yl]-1-oxa-3,8-diaza-spiro[4.5] decan-2-one] | 98 | 10 to 50
8 | Nc1ncc(-c2ccc3c(N)n[nH]c3c2)c(N2CCC3(CC2)CNC(=O)O3)c1Cl [Compound 37, 8-[2-Amino-5-(3-amino-1H-indazol-6-yl)-3-chloro-pyridin-4-yl]-1-oxa-3,8-diaza-spiro[4.5] decan-2-one] | 2300 | 
9 | Cn1cc(-c2ccc(-c3cnc(N)c(C(F)(F)F)c3N3CCC(C(N)=O)CC3)cc2)cn1 [Compound 48, 2′-Amino-5′-[4-(1-methyl-1H-pyrazol-4-yl)-phenyl]-3′-trifluoro-methyl-3,4,5,6-tetrahydro-2H-[1,4′] bipyridinyl-4-carboxylic acid amide] | 160 | 

Other lines, results leading:

Row | IC50 [1] [nM] | microsomal CLint at 0.8 μM [2] [µL/min/mg] | Compound
10 | 670 | 10 to 50 | Nc1ncc(-c2ccccc2)c(N2CCC3(CCNC3=O)CC2)c1Cl [Compound 1, 8-(2-Amino-3-chloro-5-phenyl-pyridin-4-yl)-2,8-diaza-spiro[4.5]decan-1-one]
11 | 31 | < 10 | Cn1cc(-c2ccc(-c3cnc(N)c(Cl)c3N3CCC4(CC3)NC(=O)NC4=O)cc2)cn1 [Compound 2, 8-{2-Amino-3-chloro-5-[4-(1-methyl-1H-pyrazol-4-yl)-phenyl]-pyridin-4-yl}-1,3,8-triaza-spiro[4.5] decane-2,4-dione]
12 | 120 | < 10 | Nc1ncc(-c2ccc3c(N)n[nH]c3c2)c(N2CCC3(CCNC3=O)CC2)c1Cl [Compound 3, 8-[2-Amino-5-(3-amino-1H-indazol-6-yl)-3-chloro-pyridin-4-yl]-2,8-diaza-spiro[4.5] decan-1-one]
13 | 63 | 10 to 50 | Nc1ncc(-c2ccc3c(c2)NC(=O)C3)c(N2CCC3(CCNC3=O)CC2)c1Cl [Compound 7, 6-(6-Amino-5-chloro-4-(1-oxo-2,8-diazaspiro[4.5]decan-8-yl)pyridin-3-yl)indolin-2-one]
14 | 36 | 10 to 50 | Cn1cc(-c2ccc(-c3cnc(N)c(Cl)c3N3CCC4(CC3)CNC(=O)O4)cc2)cn1 [Compound 10, 8-{2-Amino-3-chloro-5-[4-(1-methyl-1H-pyrazol-4-yl)-phenyl]-pyridin-4-yl}-1-oxa-3,8-diaza-spiro[4.5] decan-2-one]
15 | 3 | 10 to 50 | Cn1cc(-c2ccc(-c3cnc(N)c(Cl)c3N3CCC4(CC3)C(=O)Nc3ccccc34)cc2)cn1 [Compound 11, 1′-(2-Amino-3-chloro-5-(4-(1-methyl-1H-pyrazol-4-yl)phenyl)pyridin-4-yl)spiro[indoline-3,4′-piperidin]-2-one]
16 | 31 | 10 to 50 | Nc1ncc(-c2ccc3c(N)n[nH]c3c2)c(N2CCC3(CC2)CC(=O)NC3=O)c1Cl [Compound 12, 8-[2-Amino-5-(3-amino-1H-indazol-6-yl)-3-chloro-pyridin-4-yl]-2,8-diaza-spiro[4.5] decane-1,3-dione]
17 | 14 | < 10 | Nc1ncc(-c2ccc3c(c2)CCC(=O)N3)c(N2CCC3(CC2)CC(=O)NC3=O)c1Cl [Compound 13, 8-[2-Amino-3-chloro-5-(2-oxo-1,2,3,4-tetrahydro-quinolin-6-yl)-pyridin-4-yl]-2,8-diaza-spiro[4.5] decane-1,3-dione]
18 | 40 | 10 to 50 | CN1C(=O)CCc2cc(-c3cnc(N)c(Cl)c3N3CCC4(CCNC4=O)CC3)ccc21 [Compound 14, 6-[6-Amino-5-chloro-4-(1-oxo-2,8-diaza-spiro[4.5]dec-8-yl)-pyridin-3-yl]-1-methyl-3,4-dihydro-1H-quinolin-2-one]
19 | 54 | 10 to 50 | CN1C(=O)Cc2cc(-c3cnc(N)c(Cl)c3N3CCC4(CCNC4=O)CC3)ccc21 [Compound 15, 8-[2-Amino-3-chloro-5-(1-methyl-2-oxo-2,3-dihydro-1H-indol-5-yl)-pyridin-4-yl]-2,8-diaza-spiro[4.5] decan-1-one]
20 | 85 |  | Nc1ncc(-c2ccc3[nH]ncc3c2)c(N2CCC3(CCNC3=O)CC2)c1Cl [Compound 35, 8-[2-Amino-3-chloro-5-(1H-indazol-5-yl)-pyridin-4-yl]-2,8-diaza-spiro[4.5] decan-1-one]
21 | > 300 |  | CN1C(=O)Cc2cc(-c3cnc(N)c(Cl)c3N3CCC4(CC3)CNC(=O)O4)ccc21 [Compound 36, 8-[2-Amino-3-chloro-5-(1-methyl-2-oxo-2,3-dihydro-1H-indol-5-yl)-pyridin-4-yl]-1-oxa-3,8-diaza-spiro[4.5] decan-2-one]
22 | 2 |  | Cn1cc(-c2ccc(-c3cnc(N)c(Cl)c3N3CCC4(CC3)CC(=O)NC4=O)cc2)cn1 [Compound 38, 8-(2-Amino-3-chloro-5-(4-(1-methyl-1H-pyrazol-4-yl)phenyl)pyridin-4-yl)-2,8-diazaspiro[4.5]decane-1,3-dione]
23 | 560 |  | Nc1ncc(-c2ccc(-c3cnn(CCO)c3)cc2)c(N2CCC3(CC2)NCCNC3=O)c1Cl [Compound 45, 9-(2-Amino-3-chloro-5-{4-[1-(2-hydroxy-ethyl)-1H-pyrazol-4-yl]-phenyl}-pyridin-4-yl)-1,4,9-triaza-spiro[5.5] undecan-5-one]
